# In ChEMBL document CHEMBL2346657, “Synthesis of novel 2-amino-4-(5'-substituted 2'-phenyl-1H-indol-3'-yl)-6-aryl-4H-pyran-3-carbonitrile derivatives as antimicrobial and antioxidant agents” (2013):
# Activity calls are given as the source filed them. Unless noted, no cut-off for these calls is given here.
# System: not listed separately
# Experiment: Antioxidant activity assessed as metal chelating activity by measuring inhibition of ferrozine-Fe2+ complex formation at 25 to 100 ug/ml
# Type: functional
# Conditions: not given
row,SMILES,Activity
1,Cc1ccc2[nH]c(-c3ccccc3)c(C3C=C(c4ccccc4)Oc4nc[nH]c(=O)c43)c2c1 (configuration not stated),Active
2,N#CC1=C(N)OC(c2ccccc2)=CC1c1c(-c2ccccc2)[nH]c2ccccc12 (configuration not stated),Active

# System: not listed separately
# Experiment: Antioxidant activity assessed as ferric ion reducing activity at 100 ug/ml by FRAP assay
# Type: functional
# Conditions: not given
row,SMILES,Activity
1,Cc1ccc2[nH]c(-c3ccccc3)c(C3C=C(c4ccccc4)Oc4nc[nH]c(=O)c43)c2c1 (configuration not stated),Active

# System: Radical scavenging activity
# Experiment: Antioxidant activity assessed as DPPH radical scavenging activity at 100 ug/ml
# Type: functional
# Conditions: not given
row,SMILES,Activity
1,N#CC1=C(N)OC(c2ccccc2)=CC1c1c(-c2ccccc2)[nH]c2ccccc12 (configuration not stated),Active

# System: Aspergillus flavus
# Experiment: Antimicrobial activity against Aspergillus flavus MTCC 1973 at 500 ug/ml after 72 hrs by cup plate method
# Type: functional
# Conditions: MTCC 1973, 72 h, read-out: IZ
row,SMILES,zone of inhibition at 500 µg/mL [mm]
1,Cc1ccc2[nH]c(-c3ccccc3)c(C3C=C(c4ccccc4)Oc4nc[nH]c(=O)c43)c2c1 (configuration not stated),8
2,N#CC1=C(N)OC(c2ccccc2)=CC1c1c(-c2ccccc2)[nH]c2ccccc12 (configuration not stated),10

# System: Aspergillus flavus
# Experiment: Antimicrobial activity against Aspergillus flavus MTCC 1973 at 750 ug/ml after 72 hrs by cup plate method
# Type: functional
# Conditions: MTCC 1973, 72 h, read-out: IZ
row,SMILES,zone of inhibition at 750 µg/mL [mm]
1,Cc1ccc2[nH]c(-c3ccccc3)c(C3C=C(c4ccccc4)Oc4nc[nH]c(=O)c43)c2c1 (configuration not stated),8
2,N#CC1=C(N)OC(c2ccccc2)=CC1c1c(-c2ccccc2)[nH]c2ccccc12 (configuration not stated),10

# System: Aspergillus flavus
# Experiment: Antimicrobial activity against Aspergillus flavus MTCC 1973 at 1000 ug/ml after 72 hrs by cup plate method
# Type: functional
# Conditions: MTCC 1973, 72 h, read-out: IZ
row,SMILES,zone of inhibition at 1000 µg/mL [mm]
1,Cc1ccc2[nH]c(-c3ccccc3)c(C3C=C(c4ccccc4)Oc4nc[nH]c(=O)c43)c2c1 (configuration not stated),8
2,N#CC1=C(N)OC(c2ccccc2)=CC1c1c(-c2ccccc2)[nH]c2ccccc12 (configuration not stated),10

# System: Aspergillus terreus
# Experiment: Antimicrobial activity against Aspergillus terreus MTCC 1782 at 500 ug/ml after 72 hrs by cup plate method
# Type: functional
# Conditions: MTCC 1782, 72 h, read-out: IZ
row,SMILES,zone of inhibition at 500 µg/mL [mm]
1,Cc1ccc2[nH]c(-c3ccccc3)c(C3C=C(c4ccccc4)Oc4nc[nH]c(=O)c43)c2c1 (configuration not stated),4
2,N#CC1=C(N)OC(c2ccccc2)=CC1c1c(-c2ccccc2)[nH]c2ccccc12 (configuration not stated),9

# System: Aspergillus terreus
# Experiment: Antimicrobial activity against Aspergillus terreus MTCC 1782 at 750 ug/ml after 72 hrs by cup plate method
# Type: functional
# Conditions: MTCC 1782, 72 h, read-out: IZ
row,SMILES,zone of inhibition at 750 µg/mL [mm]
1,Cc1ccc2[nH]c(-c3ccccc3)c(C3C=C(c4ccccc4)Oc4nc[nH]c(=O)c43)c2c1 (configuration not stated),3
2,N#CC1=C(N)OC(c2ccccc2)=CC1c1c(-c2ccccc2)[nH]c2ccccc12 (configuration not stated),5

# System: Aspergillus terreus
# Experiment: Antimicrobial activity against Aspergillus terreus MTCC 1782 at 1000 ug/ml after 72 hrs by cup plate method
# Type: functional
# Conditions: MTCC 1782, 72 h, read-out: IZ
row,SMILES,zone of inhibition at 1000 µg/mL [mm]
1,Cc1ccc2[nH]c(-c3ccccc3)c(C3C=C(c4ccccc4)Oc4nc[nH]c(=O)c43)c2c1 (configuration not stated),3
2,N#CC1=C(N)OC(c2ccccc2)=CC1c1c(-c2ccccc2)[nH]c2ccccc12 (configuration not stated),3

# System: Aspergillus oryzae
# Experiment: Antimicrobial activity against Aspergillus oryzae MTCC 3567 at 500 ug/ml after 72 hrs by cup plate method
# Type: functional
# Conditions: MTCC 3567, 72 h, read-out: IZ
row,SMILES,zone of inhibition at 500 µg/mL [mm]
1,Cc1ccc2[nH]c(-c3ccccc3)c(C3C=C(c4ccccc4)Oc4nc[nH]c(=O)c43)c2c1 (configuration not stated),9
2,N#CC1=C(N)OC(c2ccccc2)=CC1c1c(-c2ccccc2)[nH]c2ccccc12 (configuration not stated),9

# System: Aspergillus oryzae
# Experiment: Antimicrobial activity against Aspergillus oryzae MTCC 3567 at 750 ug/ml after 72 hrs by cup plate method
# Type: functional
# Conditions: MTCC 3567, 72 h, read-out: IZ
row,SMILES,zone of inhibition at 750 µg/mL [mm]
1,Cc1ccc2[nH]c(-c3ccccc3)c(C3C=C(c4ccccc4)Oc4nc[nH]c(=O)c43)c2c1 (configuration not stated),9
2,N#CC1=C(N)OC(c2ccccc2)=CC1c1c(-c2ccccc2)[nH]c2ccccc12 (configuration not stated),9

# System: Aspergillus oryzae
# Experiment: Antimicrobial activity against Aspergillus oryzae MTCC 3567 at 1000 ug/ml after 72 hrs by cup plate method
# Type: functional
# Conditions: MTCC 3567, 72 h, read-out: IZ
row,SMILES,zone of inhibition at 1000 µg/mL [mm]
1,Cc1ccc2[nH]c(-c3ccccc3)c(C3C=C(c4ccccc4)Oc4nc[nH]c(=O)c43)c2c1 (configuration not stated),9
2,N#CC1=C(N)OC(c2ccccc2)=CC1c1c(-c2ccccc2)[nH]c2ccccc12 (configuration not stated),5

# System: Aspergillus niger
# Experiment: Antimicrobial activity against Aspergillus niger MTCC 281 at 500 ug/ml after 72 hrs by cup plate method
# Type: functional
# Conditions: MTCC 281, 72 h, read-out: IZ
row,SMILES,zone of inhibition at 500 µg/mL [mm]
1,Cc1ccc2[nH]c(-c3ccccc3)c(C3C=C(c4ccccc4)Oc4nc[nH]c(=O)c43)c2c1 (configuration not stated),5
2,N#CC1=C(N)OC(c2ccccc2)=CC1c1c(-c2ccccc2)[nH]c2ccccc12 (configuration not stated),6

# System: Aspergillus niger
# Experiment: Antimicrobial activity against Aspergillus niger MTCC 281 at 750 ug/ml after 72 hrs by cup plate method
# Type: functional
# Conditions: MTCC 281, 72 h, read-out: IZ
row,SMILES,zone of inhibition at 750 µg/mL [mm]
1,Cc1ccc2[nH]c(-c3ccccc3)c(C3C=C(c4ccccc4)Oc4nc[nH]c(=O)c43)c2c1 (configuration not stated),4
2,N#CC1=C(N)OC(c2ccccc2)=CC1c1c(-c2ccccc2)[nH]c2ccccc12 (configuration not stated),5

# System: Aspergillus niger
# Experiment: Antimicrobial activity against Aspergillus niger MTCC 281 at 1000 ug/ml after 72 hrs by cup plate method
# Type: functional
# Conditions: MTCC 281, 72 h, read-out: IZ
row,SMILES,zone of inhibition at 1000 µg/mL [mm]
1,Cc1ccc2[nH]c(-c3ccccc3)c(C3C=C(c4ccccc4)Oc4nc[nH]c(=O)c43)c2c1 (configuration not stated),4
2,N#CC1=C(N)OC(c2ccccc2)=CC1c1c(-c2ccccc2)[nH]c2ccccc12 (configuration not stated),10

# System: Pseudomonas aeruginosa
# Experiment: Antimicrobial activity against Pseudomonas aeruginosa MTCC 1688 at 500 ug/ml after 24 hrs by cup plate method
# Type: functional
# Conditions: MTCC 1688, 24 h, read-out: IZ
row,SMILES,zone of inhibition at 500 µg/mL [mm]
1,Cc1ccc2[nH]c(-c3ccccc3)c(C3C=C(c4ccccc4)Oc4nc[nH]c(=O)c43)c2c1 (configuration not stated),5
2,N#CC1=C(N)OC(c2ccccc2)=CC1c1c(-c2ccccc2)[nH]c2ccccc12 (configuration not stated),9

# System: Pseudomonas aeruginosa
# Experiment: Antimicrobial activity against Pseudomonas aeruginosa MTCC 1688 at 750 ug/ml after 24 hrs by cup plate method
# Type: functional
# Conditions: MTCC 1688, 24 h, read-out: IZ
row,SMILES,zone of inhibition at 750 µg/mL [mm]
1,Cc1ccc2[nH]c(-c3ccccc3)c(C3C=C(c4ccccc4)Oc4nc[nH]c(=O)c43)c2c1 (configuration not stated),5
2,N#CC1=C(N)OC(c2ccccc2)=CC1c1c(-c2ccccc2)[nH]c2ccccc12 (configuration not stated),9

# System: Pseudomonas aeruginosa
# Experiment: Antimicrobial activity against Pseudomonas aeruginosa MTCC 1688 at 1000 ug/ml after 24 hrs by cup plate method
# Type: functional
# Conditions: MTCC 1688, 24 h, read-out: IZ
row,SMILES,zone of inhibition at 1000 µg/mL [mm]
1,Cc1ccc2[nH]c(-c3ccccc3)c(C3C=C(c4ccccc4)Oc4nc[nH]c(=O)c43)c2c1 (configuration not stated),5
2,N#CC1=C(N)OC(c2ccccc2)=CC1c1c(-c2ccccc2)[nH]c2ccccc12 (configuration not stated),9

# System: Klebsiella pneumoniae
# Experiment: Antimicrobial activity against Klebsiella pneumoniae NCTC 13368 at 500 ug/ml after 24 hrs by cup plate method
# Type: functional
# Conditions: NCTC 13368, 24 h, read-out: IZ
row,SMILES,zone of inhibition at 500 µg/mL [mm]
1,Cc1ccc2[nH]c(-c3ccccc3)c(C3C=C(c4ccccc4)Oc4nc[nH]c(=O)c43)c2c1 (configuration not stated),5
2,N#CC1=C(N)OC(c2ccccc2)=CC1c1c(-c2ccccc2)[nH]c2ccccc12 (configuration not stated),13

# System: Klebsiella pneumoniae
# Experiment: Antimicrobial activity against Klebsiella pneumoniae NCTC 13368 at 750 ug/ml after 24 hrs by cup plate method
# Type: functional
# Conditions: NCTC 13368, 24 h, read-out: IZ
row,SMILES,zone of inhibition at 750 µg/mL [mm]
1,Cc1ccc2[nH]c(-c3ccccc3)c(C3C=C(c4ccccc4)Oc4nc[nH]c(=O)c43)c2c1 (configuration not stated),5
2,N#CC1=C(N)OC(c2ccccc2)=CC1c1c(-c2ccccc2)[nH]c2ccccc12 (configuration not stated),13

# System: Klebsiella pneumoniae
# Experiment: Antimicrobial activity against Klebsiella pneumoniae NCTC 13368 at 1000 ug/ml after 24 hrs by cup plate method
# Type: functional
# Conditions: NCTC 13368, 24 h, read-out: IZ
row,SMILES,zone of inhibition at 1000 µg/mL [mm]
1,Cc1ccc2[nH]c(-c3ccccc3)c(C3C=C(c4ccccc4)Oc4nc[nH]c(=O)c43)c2c1 (configuration not stated),5
2,N#CC1=C(N)OC(c2ccccc2)=CC1c1c(-c2ccccc2)[nH]c2ccccc12 (configuration not stated),13

# System: Staphylococcus aureus
# Experiment: Antimicrobial activity against Staphylococcus aureus ATCC 29513 at 500 ug/ml after 24 hrs by cup plate method
# Type: functional
# Conditions: ATCC 29513, 24 h, read-out: IZ
row,SMILES,zone of inhibition at 500 µg/mL [mm]
1,Cc1ccc2[nH]c(-c3ccccc3)c(C3C=C(c4ccccc4)Oc4nc[nH]c(=O)c43)c2c1 (configuration not stated),11
2,N#CC1=C(N)OC(c2ccccc2)=CC1c1c(-c2ccccc2)[nH]c2ccccc12 (configuration not stated),10

# System: Staphylococcus aureus
# Experiment: Antimicrobial activity against Staphylococcus aureus ATCC 29513 at 750 ug/ml after 24 hrs by cup plate method
# Type: functional
# Conditions: ATCC 29513, 24 h, read-out: IZ
row,SMILES,zone of inhibition at 750 µg/mL [mm]
1,Cc1ccc2[nH]c(-c3ccccc3)c(C3C=C(c4ccccc4)Oc4nc[nH]c(=O)c43)c2c1 (configuration not stated),10
2,N#CC1=C(N)OC(c2ccccc2)=CC1c1c(-c2ccccc2)[nH]c2ccccc12 (configuration not stated),10

# System: Staphylococcus aureus
# Experiment: Antimicrobial activity against Staphylococcus aureus ATCC 29513 at 1000 ug/ml after 24 hrs by cup plate method
# Type: functional
# Conditions: ATCC 29513, 24 h, read-out: IZ
row,SMILES,zone of inhibition at 1000 µg/mL [mm]
1,Cc1ccc2[nH]c(-c3ccccc3)c(C3C=C(c4ccccc4)Oc4nc[nH]c(=O)c43)c2c1 (configuration not stated),10
2,N#CC1=C(N)OC(c2ccccc2)=CC1c1c(-c2ccccc2)[nH]c2ccccc12 (configuration not stated),10

# System: Escherichia coli
# Experiment: Antimicrobial activity against Escherichia coli MTCC 723 at 500 ug/ml after 24 hrs by cup plate method
# Type: functional
# Conditions: MTCC 723, 24 h, read-out: IZ
row,SMILES,zone of inhibition at 500 µg/mL [mm]
1,Cc1ccc2[nH]c(-c3ccccc3)c(C3C=C(c4ccccc4)Oc4nc[nH]c(=O)c43)c2c1 (configuration not stated),8
2,N#CC1=C(N)OC(c2ccccc2)=CC1c1c(-c2ccccc2)[nH]c2ccccc12 (configuration not stated),10

# System: Escherichia coli
# Experiment: Antimicrobial activity against Escherichia coli MTCC 723 at 750 ug/ml after 24 hrs by cup plate method
# Type: functional
# Conditions: MTCC 723, 24 h, read-out: IZ
row,SMILES,zone of inhibition at 750 µg/mL [mm]
1,Cc1ccc2[nH]c(-c3ccccc3)c(C3C=C(c4ccccc4)Oc4nc[nH]c(=O)c43)c2c1 (configuration not stated),6
2,N#CC1=C(N)OC(c2ccccc2)=CC1c1c(-c2ccccc2)[nH]c2ccccc12 (configuration not stated),8

# System: Escherichia coli
# Experiment: Antimicrobial activity against Escherichia coli MTCC 723 at 1000 ug/ml after 24 hrs by cup plate method
# Type: functional
# Conditions: MTCC 723, 24 h, read-out: IZ
row,SMILES,zone of inhibition at 1000 µg/mL [mm]
1,Cc1ccc2[nH]c(-c3ccccc3)c(C3C=C(c4ccccc4)Oc4nc[nH]c(=O)c43)c2c1 (configuration not stated),6
2,N#CC1=C(N)OC(c2ccccc2)=CC1c1c(-c2ccccc2)[nH]c2ccccc12 (configuration not stated),8
